Results as given in PMC5341695 (Biochemical pharmacology, 2016).
Values joined by “and” are separate entries in the source; they are usually repeats but may differ in a detail not shown here. Equal entries are not always repeated. Where two headings read alike, the source gives them in different places.

Legend:
[1] = target: wild-type his-tagged mouse Pgp transporter reconstituted into liposomes (Mus musculus, UniProt P21447); assay: Pgp-coupled ATPase activity
[2] = target: T1, mouse Pgp reconstituted in liposomes (Mus musculus, UniProt P21447); assay: AMPPNP-induced quenching of Pgp intrinsic tryptophan fluorescence
[3] = target: mouse Pgp reconstituted into liposomes (Mus musculus, UniProt P21447)
[4] = target: T1, mouse Pgp reconstituted in liposomes; details: 3.2 mM (saturating) AMPPNP, no verapamil
[5] = 3.2 mM AMPPNP, 1 µM Pgp, no verapamil

SMILES: Nc1ncnc2c1ncn2[C@@H]1O[C@H](COP(=O)(O)OP(=O)([O-])OP(=O)([O-])O)[C@@H](O)[C@H]1O.[Na+].[Na+] [ATP, Disodium ATP]
- VMAX basal Pgp ATPase activity ([1]; ATP titration in the absence of verapamil, Equation 1): 619 ± 18 nmol/min/mg
- increase of ATP affinity in the presence of two bound verapamil molecules ([1]; COPASI fit, KD5 versus KD3, saturating verapamil): ~ 4 fold and 4 fold
- Vmax0 (basal ATPase activity, E-ATP) ([1]; COPASI fit, average over […]-3.2 mM ATP): 672 ± 93 nmol/min/mg
- VMAX of Pgp-coupled ATPase with ATP alone (discussion) ([1]; no verapamil): 500 to 700 nmol/min/mg
- Kd ([1]; read-out: KD4 (ATP to EV, one bound verapamil), COPASI fit, 0.5 mM ATP data set): 1.49 mM
- Kd ([1]; read-out: KD4 (ATP to EV, one bound verapamil), COPASI fit, 1 mM ATP data set): 1.34 mM
- Kd ([1]; read-out: KD4 (ATP to EV, one bound verapamil), COPASI fit, 2 mM ATP data set): 1.03 mM
- Kd ([1]; read-out: KD4 (ATP to EV, one bound verapamil), COPASI fit, 3.2 mM ATP data set): 1 mM
- Kd ([1]; read-out: KD4 (ATP to EV, one bound verapamil), COPASI fit, […] ATP data set): 1.35 mM
- Kd ([1]; read-out: KD5 (ATP to EVV, two bound verapamil), COPASI fit, 3.2 mM ATP data set): 0.21 mM
- Km ([1]; read-out: Km for ATP in the presence of Na3VO4, 200 µM Na3VO4, range of ATP concentrations, Equation 1): 906 ± 476 µM

SMILES: [Na+].[Na+].[Na+].[O]=[V]([O-])([O-])[O-] [Na3VO4, sodium orthovanadate]
- mode of inhibition of Pgp-mediated ATP hydrolysis ([1]; 200 µM): non-competitive inhibitor
- VMAX Pgp ATPase activity in the presence of Na3VO4 ([1]; 200 µM Na3VO4, range of ATP concentrations, Equation 1): 172 ± 24 nmol/min/mg
- Na3VO4 sensitive VMAX for Pgp ([1]; difference in VMAX without and with 200 µM Na3VO4): 447 ± 30 nmol/min/mg

SMILES: Nc1ncnc2c1ncn2[C@@H]1O[C@H](COP(=O)([O-])OP(=O)([O-])NP(=O)([O-])[O-])[C@@H](O)[C@H]1O.[Li+].[Li+].[Li+].[Li+] [AMPPNP, Adenosine 5’-(β,γ-imido)triphosphate lithium salt]
- K1 (low concentration phase) ([2]; 37 °C, data not shown): 8 µM⁻¹
- K2 (high concentration phase) ([2]; 37 °C, data not shown): 0.017 µM⁻¹
- K1 (low concentration phase, dynamic quenching) ([2]; fit to equation 6): 6.66 +/− 3.41 µM ^−1
- K2 (high concentration phase, static quenching) ([2]; fit to equation 6): 0.022 +/− 0.006 µM ^−1
- fraction quenched, high concentration phase (FH/F0) ([2]; fit to equation 6): 0.074
- fraction quenched, low concentration phase (FL/F0) ([2]; fit to equation 6): 0.16
- Kd ([2]; read-out: KD of AMPPNP for Pgp, from high concentration (static) quenching phase): 0.045 mM
- decrease of Pgp tryptophan fluorescence ([2]; saturating AMPPNP concentration, 1 µM Pgp): about 15%
- decrease of average STDD amplification factor of AMPPNP ([3]; 3.2 mM AMPPNP and 8 µM verapamil): 15%
- increase of average STDD amplification factors of AMPPNP ([3]; 3.2 mM AMPPNP and 1 mM verapamil): more than 20%
- average STDD amplification factor for AMPPNP [3, 5]: 63 ± 51
- average STDD amplification factor, purine base [3, 5]: 79 ± 64
- average STDD amplification factor, ribose sugar [3, 5]: 40 ± 11
- KSV acrylamide quenching [4]: 0.97 ± 0.16 M⁻¹
